Data as given in paper PMC8179002, “Inhibitors of thiol-mediated uptake” (Chemical Science, 2020).

System: pseudo-lentivectors that express the D614G mutant of the SARS-CoV-2 spike protein
Type: cell-based

Structure (SMILES) | Concentration at onset of inhibition of pseudo-lentivector entry [µM] | IC50 (read-out: IC50, inhibition of pseudo-lentivector entry) [µM]
CCN1C(=O)C2SSSSC1C(=O)N2CC(=O)O (centres unmarked) [compound 3] | 50 | –
O=S1(=O)C[C@H](O)[C@H](O)CS1 [compound 16] | – | ~50
